From patent US20070280944A1, “Use of 5,10-Methylene Tetrahydrofolate for the Treatment of Cancer” (priority 2004, published 2007)

Legend:
[1] = system: human colon carcinoma HT-29; experiment: HT-29 Colorectal Carcinoma Nude Mouse Study #1 (tumor volume, survival); assay type: in vivo, Nude (nu/nu) mice; conditions: for mean tumor volume: 22 days following treatment initiation, mean±SEM, i.p. dosing, in mm³ (unit assumed)
Method: (§1) Nude (nu/nu) mice were obtained from Charles River Laboratories.
5-Fluorouracil (5-FU) was obtained from Calbiochem. Leucovorin (leucovorin) and oxaliplatin were obtained from Sigma-Aldrich.
Finally, cells were resuspended at 2×10^7 cells/ml in PBS. […] All drugs were dosed daily (0.6 mg/mouse/drug) for five consecutive days with the exception of anti-VEGF and oxaliplatin. Anti-VEGF was dosed once (100 microgram/mouse) on day 5. Oxaliplatin was dosed once on day 1 (0.3mg/mouse). In addition, 5,10-CH2-THFA or leucovorin were injected 20 minutes prior to 5-FU injection. Tumor sizes were measured every 2 to 3 days using calipers.
(§2) Statistical analysis of tumor and blood data was performed using GraphPad Prism scientific software. Bonferonni's T test was used to compare tumor sizes between multiple groups. The Logrank test was used to determine statistical differences between group survival curves. In some cases, in which only two groups were compared, Student's T test was used to determine the significance between group measurements.

[2] = system: human colon carcinoma HT-29; experiment: HT-29 Colorectal Carcinoma Nude Mouse Study #2 (doubling time, tumor volume, survival); assay type: in vivo, Nude (nu/nu) mice
From the text: as §1
5-Fluorouracil (5-FU) was obtained from Calbiochem. Leucovorin (leucovorin) and oxaliplatin were obtained from Sigma-Aldrich. 5,10 methylenetetrahydofolate was manufactured by Eprova AG. A monoclonal antibody to vascular endothelial growth factor (anti-VEGF) was either obtained from R&D Systems (clone 26503 recognizing the human VEGF isoform 165) or Genentech (Avastin).
Finally, cells were resuspended at 1×10^7 cells/ml in PBS. […] All drugs were dosed daily (0.6 mg/mouse/drug) for seven consecutive days with the exception of anti-VEGF, dosed twice (100 micrograms/mouse) on days 1 and 7. In addition, 5,10-CH2-THFA or leucovorin were injected 20 minutes prior to 5-FU injection. Tumor sizes were measured every 2 to 3 days using calipers.
as §2

[3] = system: Balb/c mice
Method: (§3) Balb/c mice were obtained from Charles River Laboratories.
5-Fluorouracil (5-FU) was obtained from Calbiochem. Leucovorin (folinic acid) was obtained from Sigma-Aldrich.
All drugs were intraperitoneally injected (100 microliters/mouse, 0.6mg/mouse/drug) using a 28 gauge insulin needle/syringe. 200-250 microliters blood/mouse was collected by retro-orbital puncture into EDTA-coated microtainer tubes (VWR International) on days 0 (prior to drug injection), 8, and 13. Complete blood counts plus blood differentials were determined by Labcorp Corporation of America using a Bayer Advia 120 Hematology analyzer.

[4] = system: Balb/c mice; assay type: in vivo
Method: as §3
5-Fluorouracil (5-FU) and leucovorin (leucovorin) were obtained from Sigma-Aldrich. […] Gemcitabine was manufactured by Eli Lilly and purchased from Myoderm Inc.
Balb/c female mice were injected with combinations of 5-FU, leucovorin, 5,10-CH2-THFA, and gemcitabine. 5-FU, leucovorin, and 5,10-CH2-THFA were intraperitoneally injected (100 microliters/mouse, 0.6 mg/mouse/drug) for five consecutive days (days 1-5). Gemcitabine was intraperitoneally injected (100 microliters/mouse, 100 micrograms/mouse) every three days (days 1, 4, and 7). All drugs were injected using a 27 gauge insulin needle/syringe. Mouse weights were measured using an analytical balance prior to initiation of drug dosing (pretreatment) and on day 8.

[5] = Weight loss toxicity in the Xeloda HT-29 nude mouse study; assay type: in vivo, Nude (nu/nu) mice; conditions: maximum toxicity grade, NCI CTC v3 (grade 1 5-<10% weight loss)
From the text: As a surrogate marker for drug toxicity, we examined mouse body weights over time. Using the National Cancer Institute's Common Toxicity Criteria version 3 grading system for weight loss (Table 11), the maximum toxicity grade of weight loss was plotted (FIG. 21). While Xeloda by itself was relatively nontoxic, inducing only grade 1 toxicity in 36% of the mice, leucovorin increased the overall grade 1-3 toxicity to 90% of mice. This increased toxicity is consistent with phase II human clinical trial results showing leucovorin increased Xeloda toxicity parameters such as diarrhea, vomiting, and mucosal inflammation (Van Cutsem, E., M. Findlay, B. Osterwalder, W. Kocha, D. Dailey, R. Pazdur, J. Cassidy, L. Dirix, C. Twelves, D. Allman, J. F. Seitz, J. Scholmerich, H. U. Burger, and J. Verweij. 2000. Capecitabine, an oral fluoropyrimidine carbamate with substantial activity in advanced colorectal cancer: results of a randomized phase II study. J Clin Oncol 18:1337).

[6] = system: human colon carcinoma HT-29; experiment: Nude mouse study on HT-29 colorectal tumor treatment with capecitabine (Xeloda) (doubling time, survival)
Method: Nude (nu/nu) mice were obtained from Simonsen Laboratories. Mice were 6-8 weeks old at the start of all studies. Mice were maintained in isolated, hepa-filter ventilated cages with 4 mice per cage at Perry Scientific's vivarium (San Diego, Calif.).
The human colon carcinoma HT-29 was obtained from American Tissue Culture Collection (ATCC). Cells were maintained in DMEM containing 10% fetal bovine serum (FBS), 2 mM 1-glutamine, 100 units/ml penicillin, and 100 micrograms/ml streptomycin (DMEM-10) in a 37° C., 10% CO2 humidified incubator. Cells were passaged every 2-3 days prior to in vivo experiments.
Capecitabine (Xeloda) was manufactured by Roche Laboratories (Nutley, N.J.) Leucovorin (leucovorin) was obtained from Sigma-Aldrich. 5,10 methylenetetrahydofolate (5,10-CH2-THFA) was manufactured by Eprova AG.
HT-29 cells were prepared for injection as follows: Confluent tissue culture flasks of HT-29 cells were washed once with PBS followed by cell detachment with trypsin. Detached cells were then washed once in DMEM-10 followed by one wash with PBS. Finally, cells were resuspended in PBS at 10^7 cells/ml. […] Tumor sizes and mouse body weights were measured every 2-4 days. Tumor volume was calculated using the following formula: tumor volume=(length×width^2)/2. […]

[7] = female, Balb/c, mouse, in vivo, 1 week following drug treatment
[8] = female, Balb/c, mouse, in vivo, 8 day

In the case of `O=c1[nH]cc(F)c(=O)[nH]1` [5-FU, 5-fluorouracil], the mean tumor volume ([1]; Nude mice bearing HT-29 tumor) is reported as 752.5±104.2, the “mice still alive (survival)” value ([1]; at completion of the study period (42 days), Nude mice bearing HT-29 tumor) is reported as 25% and the mean tumor volume ([2]; 19 days following treatment initiation, mean±SEM, in mm³ (unit assumed)) is reported as 368.5±63.7. For the same molecule, the “Tumor Doubling Time” value ([2]; from best-fit curve analysis, Nude mice bearing HT-29 tumor) was 7.4 days, the “mice with Grade 3-4 lymphopenia” value ([3]; NCI grading on % of baseline lymphocyte levels (Grade 3 25-<50% LLN, Grade 4 <25% LLN), one week following drug treatment) was 100% and the “grade 4 neutrophil toxicity mice with neutrophil cell counts between 0 and 99” value ([3]; female, Balb/c, mouse, in vivo) was 100%. For the same molecule, the “mice with grade 4 neutrophil toxicity” value [3, 7] was 100%, the “mice with grade 4 platelet toxicity” value [3, 7] was 25% and the “mice with grade 2-3 weight loss toxicity” value [4, 8] was 100%. The “mice surviving for up to 14 days” value ([4]; normal Balb/c mice) was 36%.
In the case of `O=C1[O][Pt]2([NH][C@@H]3CCCC[C@H]3[NH]2)[O]C1=O` [Oxaliplatin, oxaliplatin], the mean tumor volume ([1]; Nude mice bearing HT-29 tumor) is reported as 875.0±90.6 and the “response of HT-29 tumor to drug” value ([1]; largest tumors of all groups, FIG. 4) is reported as “not responsive”.
For `CCCCCOC(=O)Nc1nc(=O)n([C@@H]2O[C@H](C)[C@@H](O)[C@H]2O)cc1F` [Xeloda, N4-pentoxylcarbonyl-5′-deoxy-5-fluorocytidine], the “mice with grade 1 weight loss toxicity (only grade seen)” value [5] was 36%, the “Tumor Doubling Time” value ([6]; from best-fit linear regression of exponential tumor growth, 14 consecutive days dosing) was 10.1 days and the survival ([6]; on day 33 of the experiment (day 1 = first day of drug dosing)) was 38%.
With `Nc1ccn([C@@H]2O[C@H](CO)[C@@H](O)C2(F)F)c(=O)n1` [gemcitabine] the “weight loss toxicity grade” value [4, 8] was “grade 1”.
